Assay results from patent publication US20100280117A1 (Xanodyne Pharmaceuticals, Inc., priority 2009, published 2010).

Columns and labels:
[1] = test system: women with menorrhagia; assay: Example VIII double-blind placebo-controlled clinical study, six treated menstrual periods
Method: (§1) This was a multi-center, double-blind, placebo-controlled, parallel-group study.
Menstrual blood loss (MBL) was assessed during the entire menstrual period by the alkaline hematin test (AHT) method. Measures from the Menorrhagia Instrument (FIG. 1) were also administered immediately after each menstrual period under investigation. Subjects reported large stains exceeding the capacity of sanitary protection (and other patient reported outcome [PRO] items) during the menstrual period in daily diaries.
For the Primary Endpoint, the objective reduction in menstrual blood loss (MBL) during the entire menstrual period as assessed by the AHT Method was assessed.
For the Secondary Endpoints, the Limitation in Social Leisure Activities (LSLA) and the Limitation in Physical Activities (LPA) scores from the Menorrhagia Instrument (MI measures #4 and #3, respectively) and the total number of large stains responder analysis during the menstrual period from subject diaries were assessed.
For the Secondary Endpoints, assessment of the following were included, Menstrual Blood Loss (MBL) assessment score (MI measure #1), Limitation in Work Outside or Inside the Home (LWH) score (MI measure #2), and subject assessment of meaningfulness score from the MI (Measure #6) (used for the MBL responder analysis).
(§2) The efficacy results were based on the modified ITT (mITT) populations.

[2] = test system: heavy menstrual bleeding; details: open label uncontrolled, 849 patients; cited from earlier work
[3] = Randomized single-dose 4-way crossover bioequivalence/bioavailability study, fasting; set-up: species or system human (healthy female volunteers); details: female, human, in vivo, iv
[4] = test system: heavy menstrual bleeding; details: cited from earlier work
[5] = test system: patients diagnosed with menorrhagia; assay: Menorrhagia Instrument (MI) validation sub-study, treatment cohort; type: in vivo, human (women)
Method: The MI was evaluated in a sub population of patients enrolled in a clinical trial designed to assess the safety and efficacy of tranexamic acid at an oral dose of 3.9 g administered daily for up to 5 days during each menstrual period. Two groups of patients were used to assess the MI, one group of patients were those diagnosed with menorrhagia and undergoing treatment. The second group was an age matched normal group. The sub-study was designed: to collect sufficient quantitative data to support the construct-related validation of the MI measures; to collect sufficient quantitative data to support the assessment of meaningful/important change in blood loss to the women; to conduct a test/retest evaluation of the instrument, and to address the reliability of the MI measures.
A total of 262 women completed the MI. […] The MI measures 1-5 were administered at baseline and at the subsequent first and second non-treatment periods for the subjects in the normal cohort The MI measure 6 was administered and data collected, at Month 1 and Month 2. The Ruta Menorrhagia Questionnaire, SF-36 Health Survey and the MI were completed by the subject before visit procedures were performed. A subset of at least 50 subjects were asked to return to the study site 7 to 10 days after the baseline Visit but before the next menstrual period starts to complete the MI a second time.
A total of 177 patients were enrolled into the sub-study. […] The 149 patients remaining were intended to be age matched. The majority of patients in the study were in their late 30's or early 40's. Because of the difficulty of enrolling sufficient numbers of women with normal menstrual periods in this age bracket 18 evaluable patients were not age matched. A total of 131 evaluable patients were age matched. A sub-set of 80 evaluable patients participated in the test/retest segment of the validation. Of these patients 11 were evaluable but not age matched. Data from all 80 patients were used for statistical evaluation of the test/re-test correlations.
The following Measures were summarized and statistically analyzed: • MI measure1—Blood Loss Rating • MI measure 2—Limitation of Work Outside or Inside the Home • MI measure 3—Limitation of Physical Activities • MI measure 4—Limitation of Social or Leisure Activities • MI measure 6/6a/6b—Menstrual Blood Loss During Last Period • MI measure 6c—Meaningfulness of Change in Menstrual Blood Loss
The MI consisted of 4 individual measures (1-4) that were analyzed separately for validation. No summative scale was derived. […] Measures 6, 6a and 6b dealt with menstrual blood loss relative to the previous menstrual period. The answers to the measures in the subparts of measure 6, were combined to produce a 15 point rating scale. The scale values range from −7 to +7 with −7 representing a very great deal worse menstrual blood loss than the previous period, and +7 representing a very great deal better menstrual blood loss than the previous period. The midpoint (0) represents the perception of about the same menstrual blood loss as the previous period.
The ability to detect change required that values for the item or instrument change when the concept it measures changed. In order to measure the MI items ability to detect change, longitudinal data were evaluated focusing primarily on the changes from baseline to month 1. Differences in proportions and comparisons between treatment and normal groups were compared using chi-square statistics (the Stuart-Maxwell test testing marginal homogeneity for all categories simultaneously). […] The Cohen Effect Size was computed by taking the mean change in measure score (baseline to month 1) and dividing that by the standard deviation of mean baseline score.^2 ^2 Cohen, J. J. (1988). Statistical power analysis for the behavioral sciences (p. 8). Erlbaum: Hillsdale, N.J.

[6] = test system: women with menorrhagia; assay: Example VII double-blind placebo-controlled clinical study, three treated menstrual periods; details: for proportion of responders (reduction in MBL and meaningful improvement, MI measure 6c): after first treated cycle, p<0.0001 vs placebo
Method: as §1
The primary objective of the study was to determine the efficacy of a 1.95 gm/day of tranexamic acid (650 mg orally three times daily, TID) and 3.9 gm/day of tranexamic acid (1.3 gm orally three times daily, TID) administered during menstruation for up to 5 days (maximum of 15 doses) to reduce menstrual blood loss in women with objective evidence of heavy menstrual bleeding.
The secondary objective of the study was to determine the improvement with administration of 1.95 gm/day or 3.9 gm/day of tranexamic acid in women with heavy menstrual bleeding in their symptoms including, Limitation in Social Leisure Activities (LSLA) and Limitation in Physical Activities (LPA) scores from the Menorrhagia Instrument Measures (FIG. 1). Further the objective was to determine the safety of the 1.95 gm/day and 3.9 gm/day of the modified release tranexamic acid formulation administered during menstruation.
All periods were evaluated for the secondary endpoints, and for safety of tranexamic acid at an oral dose of 1.3 gm or placebo administered three (3) times daily for up to five consecutive (5) days (maximum of 15 doses) during menstruation.
Menstrual blood loss (MBL) was assessed during the entire menstrual period by the alkaline hematin test (AHT) method. The Menorrhagia Instrument Measures (FIG. 1) were also administered immediately after each menstrual period under investigation. For the Primary Endpoint, the objective reduction in menstrual blood loss (MBL) during the entire menstrual period as assessed by the AHT Method was assessed.
For the Secondary Endpoints, the scores for Limitation in Social Leisure Activities (LSLA) and the scores for Limitation in Physical Activities (LPA) from the Menorrhagia Instrument Measures (MI), measures #4 and #3, respectively) were assessed.
For the Secondary Endpoints the data collected included at least; Menstrual Blood Loss (MBL) assessment score (MI measure 1), Limitation in Work Outside or Inside the Home (LWH) score (MI item 2), and subject assessment of meaningfulness score from the MI (measure 6) (used for the MBL responder analysis).
as §2

[7] = 3.9 g/day compared with placebo
[8] = treatment group, 3.9 g daily, score 1-5, n 126
[9] = treatment group, baseline to month 1
[10] = treatment group, Cohen effect size
[11] = women on treatment who reported a meaningful improvement

In the case of `NC[C@H]1CC[C@H](C(=O)O)CC1` [tranexamic acid], the “LWH (MI measure #2)” value [1, 7] was “significantly reduced”, the “subjects' assessment of MBL (MI measure #1)” value [1, 7] was “significantly reduced” and the “mean LPA score, change from baseline” value ([1]; 3.9 g/day, MI measure 3) was “significant treatment-related reductions”. The “mean LSLA score, change from baseline” value ([1]; 3.9 g/day, MI measure 4) was “significant treatment-related reductions”, the “proportion of responders (reduction in MBL and meaningful improvement, MI measure #6c)” value ([1]; 3.9 g/day, after first treated cycle, p<0.0001 vs placebo) was 65.4% and the “regression slope of MBL response over six menstrual cycles” value ([1]; 3.9 g/day, p=0.615) was −0.90 mL/cycle. The “women satisfied with the treatment” value [2] was 80%, the clearance [3] was 137 mL/min and the half-life [3] was 612 min. The “efficacy in the treatment of HMB” value ([4]; doses of ˜4 g/day (typically 1 g every 6 hours), immediate-release) was “effective”, the side effects ([4]; doses of ˜4 g/day (typically 1 g every 6 hours)) was “few side effects” and the “reduction of heavy menstrual bleeding” value ([4]; research from European countries) was 40-50%. For the same compound, the “calculated effect size, range over the four MI items” value ([5]; treatment group) was −0.9 to −1.2, the “mean change in response from baseline to month 1, range over the four MI items” value ([5]; treatment group) was −0.76 to −1.16 and the “MI Item 1 self-perceived blood loss, Month 1 mean” value ([5]; treatment group, 3.9 g daily oral up to 5 days, score 1-4, n 126) was 2.49. The “MI Item 2 limit you in your work, Month 1 mean” value [5, 8] was 2.12, the “MI Item 3 limit you in your physical activities, Month 1 mean” value [5, 8] was 2.13 and the “MI Item 4 limit you in your social/leisure activities, Month 1 mean” value [5, 8] was 2.00. The “MI Item 1 self-perceived blood loss, mean change” value [5, 9] was −0.76, the “MI Item 2 limit you in your work, mean change” value [5, 9] was −0.93 and the “MI Item 3 limit you in your physical activities, mean change” value [5, 9] was −1.16. For the same compound, the “MI Item 4 limit you in your social/leisure activities, mean change” value [5, 9] was −1.06, the “women on treatment who reported a meaningful improvement” value ([5]; treatment group, month 1, MI measure 6/6c) was 78.6% and the “MI Item 2 limit you in your work, Effect Size” value [5, 10] was −0.939. For the same compound, the “MI Item 3 limit you in your physical activities, Effect Size” value [5, 10] was −1.221, the “MI Item 4 limit you in your social/leisure activities, Effect Size” value [5, 10] was −1.000 and the “MI Item 1 self-perceived blood loss, Effect Size” value ([5]; treatment group, Cohen effect size, mean change / SD of baseline) was −1.226. For the same compound, the “improvement in MI item 3 (physical activities)” value [5, 11] was 1.29, the “improvement in MI item 4 (social/leisure activities)” value [5, 11] was 1.17 and the “clinical relevance of mean reduction in menstrual blood loss (criteria: >50 mL; at least 36 mL meaningful)” value ([6]; 1.9 and 3.9 g/day) was “met both criteria for a clinically meaningful result”. For the same compound, the “proportion of responders (reduction in MBL and meaningful improvement, MI measure 6c)” value ([6]; 1.95 g/day) was 58.3%, the “LWH (MI measure 2)” value [6, 7] was “significantly reduced” and the “subjects' assessment of MBL (MI item 1)” value [6, 7] was “significantly reduced”. The “proportion of responders (reduction in MBL and meaningful improvement, MI measure 6c)” value ([6]; 3.9 g/day) was 71.0%, the “mean LPA score, change from baseline” value ([6]; Limitation in Physical Activities, MI measure 3) was “Significant treatment-related reductions” and the “mean LSLA score, change from baseline” value ([6]; Limitation in Social Leisure Activities, MI measure 4) was “Significant treatment-related reductions”.
